Measured values taken from patent US20110098309A1, “METHODS OF INHIBITING THE FORMATION OF AMYLOID-BETA DIFFUSABLE LIGANDS USING ACYLHYDRAZIDE COMPOUNDS” (priority 2007, published 2011).
Values joined by “and” are separate entries in the source; they are usually repeats but may differ in a detail not shown here. Equal values may be shown once.

Columns and labels:
Aβ1-42 ADDLs = molecular target: T1, Aβ1-42 ADDLs (Homo sapiens, UniProt P05067); test: Alternating Lever Cyclic Ratio (ALCR) rat model; type: in vivo; conditions: for Approach Errors / Perseveration Errors: injection via cannula into lateral ventricle, compared to baseline error rates
T1 construct: Synthetic Aβ1-42 powder was dissolved in 1,1,1,3,3,3-hexafluorisopropanol (HFIP)
T1 sequence (P05067 672-713 limits assumed): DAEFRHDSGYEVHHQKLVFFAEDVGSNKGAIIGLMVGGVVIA
Method: Preparations of Aβ1-42 ADDLs and a potential therapeutic compound under the Alternating Lever Cyclic Ratio (ALCR) rat model of AD were tested to show in vivo efficacy. This highly sensitive model has been able to detect cognitive deficits due to direct injection of cell-derived Aβ oligomers into rat brain. Using this technique, a direct injection of ADDLs made from synthetic Aβ1-42 and a putative therapeutic compound under the ALCR procedure were tested.
In this task, rats learned a complex sequence of lever-pressing requirements in order to earn food reinforcement in a two-lever experimental chamber. Subjects alternated between two levers by switching to the other lever after pressing the first lever enough to get food reward. The exact number of presses required for each food reward changed, first increasing from 2 responses per food pellet up to 56 presses per food pellet, then decreasing back to 2 responses per pellet. Intermediate values were based on the quadratic function, x^2−x. One cycle was an entire ascending and descending sequence of these lever press requirements (e.g., 2, 6, 12, 20, 30, 42, 56, 56, 42, 30, 20, 12, 6, and 2 presses per food reward). Six such full cycles were presented during each daily session.
Synthetic Aβ1-42 powder was dissolved in 1,1,1,3,3,3-hexafluorisopropanol (HFIP) to afford a solution of Aβ1-42 in HFIP of about 1 mM and allowed to incubate at ambient temperature for about 1 h. The resulting solution was chilled on ice for about 5-10 min, then aliquoted into eppendorf tubes to provide about 50 μL of solution per tube. The tubes were then placed in a chemical fume hood and allowed to stand overnight to allow the HFIP to evaporate under a slow stream of nitrogen. To remove final traces of HFIP, the tubes were subjected to two SpeedVac cycles of 15 min at room temperature and about 15 to 25 mm Hg of vacuum. The resulting films of monomerized Aβ1-42 peptide were stored over desiccant at −80° C. until used.
A tube of monomerized Aβ1-42 peptide was warmed to room temperature and the Aβ1-42 peptide was dissolved in anhydrous DMSO to afford a peptide stock DMSO solution containing about 10 μM to about 100 μM Aβ1-42 peptide in DMSO.
The concentration of the test compound is listed below in Table 3.
For the Aβ1-42 peptide only treatment, peptide stock DMSO solution was added to 37° C. neural basal to obtain the requisite Aβ1-42 peptide monomer concentration, provided that the maximum concentration of DMSO is 1% or less, and the tube was vortexed for 30 to 60 seconds, spun down briefly in a microfuge and incubated at 37° C. for 15 min prior to the start of injections.
For the Aβ1-42 peptide plus test compound treatment, peptide stock DMSO solution was added to 37° C. compound neural basal media solution to obtain the requisite Aβ1-42 peptide monomer concentration, provided that the maximum concentration of DMSO is 1% or less, and the tube was vortexed for 30 to 36 seconds, spun down briefly in a microfuge and incubated at 37° C. for 15 min prior to the start of injections.
For control injections, compound neural basal media solution was incubated at 37° C. for 15 min prior to the start of injections.
Rats: Rats are trained under ALCR until their error rates are stable. Once the rats are placed upon the final ALCR procedure, training sessions are conducted 7 days each week until the end of the study.
Surgery: All rats received a single 28 gauge cannula, which was permanently affixed to the skull, and aimed at the lateral ventricle. Half of the rats received cannula in the right ventricle and half receive cannula in the left ventricle. Rats were allowed 5 days to recover from surgery before training resumed.
Injection of Test Material and ALCR Testing: Test were conducted about every fourth day. Animals received a 10-20 μL injection of control, peptide, or peptide plus compound solutions via the implanted cannula over about 3 to 4 minutes. Animals were tested about 3 hours following injection. […]

Aβ1-42 = Aβ1-42 (Homo sapiens, UniProt P05067); test: FRET assay of Aβ1-42 oligomer (ADDL) assembly inhibition; type: biochemical; conditions: 0.2 μM FITC-Aβ(1-42) and 0.8 μM Aβ(1-42), 37° C., six concentrations from about 10 μM to about 0.03 μM
Aβ1-42, sequence (P05067 672-713 limits assumed): as above
In short: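 Fluorescein-quenching FRET read with 0.2 μM FITC-Aβ(1-42) plus 0.8 μM Aβ(1-42) in 25 mM MOPS-Tris pH 8.0, 100 mM MgCl2, 37° C. Compound tested at six concentrations from about 10 μM down to about 0.03 μM. Fluorescence read every five minutes over about three hours; inhibition seen as absent or attenuated quenching.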

[1] = 1 nM ADDLs + 2 μM compound, rats tested about 3 hours after injection
[2] = 2 μM compound alone (no ADDLs), rats
[3] = ADDLs injected along with compound, rats
[4] = 27 nM Aβ1-42 monomer alone, rats

Row | Approach Errors (Aβ1-42 ADDLs; [1]) | Perseveration Errors (Aβ1-42 ADDLs; [1]) | Approach Errors (Aβ1-42 ADDLs; [2]) [%] | Perseveration Errors (Aβ1-42 ADDLs; [2]) [%] | Perseveration error (in words) (Aβ1-42 ADDLs; [3]) | IC50 (Aβ1-42) [µM] | Approach Errors (Aβ1-42 ADDLs; [4]) [%] | Perseveration Errors (Aβ1-42 ADDLs; [4]) [%] | Compound | Approach Errors (Aβ1-42 ADDLs; 1 nM ADDLs alone, rats) | Perseveration Errors (Aβ1-42 ADDLs; 1 nM ADDLs alone, rats) | Perseveration error (in words) (Aβ1-42 ADDLs; ADDLs compared to vehicle or Aβ1-42 monomer alone, rats)
1 | 115% | 105% | 92 | 85 | decreased significantly | 4.5 | – | – | O=C(C/C(=N/NC(=O)c1ccccc1O)C(F)(F)F)c1cccs1 [Compound 2, 2-hydroxy-N′-(1,1,1-trifluoro-4-oxo-4-(thiophen-2-yl)butan-2-ylidene)benzohydrazide] | – | – | –
2 | 100% and 111% | 92% and 107% | 101 | 112 | decreased significantly | – | – | – | O=C(N/N=C/c1c(O)ccc2ccccc12)c1ccccc1O [Compound 89, 2-hydroxy-N′-((2-hydroxy-naphthalen-1-yl)methylene)benzohydrazide] | – | – | –
3 | – | – | – | – | – | – | – | – | ADDLs: amyloid beta-derived diffusable ligands: soluble, oligomeric, globular, non-fibrillar, neurotoxic Aβ1-42 peptides, made from synthetic Aβ1-42 [reference compound] | 102% and 142% | 133% and 127% | increased the Perseveration error
4 | – | – | – | – | – | – | 105 | 117 | Aβ1-42 Monomer: monomerized synthetic Aβ1-42 peptide [reference compound] | – | – | –
